Measurements: patent US20240092745A1, “DRUGS AND COMPOSITIONS FOR THE TREATMENT OF OCULAR DISORDERS” (Graybug Vision, Inc., priority 2017, published 2024)
≈ marks a conversion by molar mass, not a printed value. Entries after “also recorded” stand apart in the source; their conditions may differ. Where a name gives a salt, the structure may show the parent alone. Read-outs that look alike come from different tables or passages of the source.

Experiments:
[1] = In vitro stability of prodrugs (degradation to parent, RP-HPLC); format: physicochemical; conditions: 37° C.; for degradation kinetics / hydrolysis to parent, in words: PBS (pH 7) with 10% DMSO, RP-HPLC
Description: Prodrugs of interest were dissolved in PBS (pH 7) containing 10% DMSO (v/v) at a concentration of 0.1 mg/mL. The samples were incubated at 37° C. or 50° C. to simulate physiological and accelerated degradation conditions, respectively. At various time points, 500 μL of the solution was collected, filtered through a 0.2 μm nylon syringe filter and analyzed by RP-HPLC.
Timolol-Dorzolamide bi-functional prodrugs were dissolved in a mixture of DMSO and PBS and incubated at 37° C. The solution was aliquoted and analyzed by HPLC at pre-determined time points. Timolol-Dorzolamide bi-functional prodrugs were stable for about 3 hours as evidenced by the significant reduction of prodrug peaks in HPLC after 2-3 hours (FIG. 30A and FIG. 30B). Timolol parent drug was detected as the bi-functional prodrug degraded, whereas Dorzolamide appeared in the form of prodrugs, i.e., Dorzolamide linked with 1-3 PLA units.

[2] = Determination of drug solubility in aqueous and organic solvent; format: physicochemical; conditions: for solubility: thermodynamic from solid;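 on all read-outs here: solid drug suspended at 50 mg/mL nominal in each solvent, vortexed and sonicated, then dissolved concentration in filtered supernatant quantified by HPLC against a calibration curve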
Description: For each test, approximately 5-10 mg was transferred to a 10 mL glass vial. Aqueous or organic solvent was added to each vial to achieve an overall concentration of 50 mg/mL. After vortexing aggressively for 2-3 minutes and sonicating in a bath sonicator for 5 minutes, undissolved drug was spun down at 1200 rpm for 5 minutes to generate a pellet. The supernatant was collected and filtered through a 0.2 μm nylon syringe filter into HPLC vials for drug content analysis. Drug concentration was determined by comparing against a standard calibration curve.

[3] = organic solvent or mixture, Table 3B, DMSO, read-out: Solubility DMSO
[4] = Table 3B, water, drug added to 50 mg/mL, read-out: Solubility Water
[5] = organic solvent or mixture, Table 3A, DMSO, read-out: Solubility DMSO
[6] = Table 3A, water, drug added to 50 mg/mL, read-out: Solubility Water
[7] = Table 3B, water, drug added to 50 mg/mL
[8] = organic solvent or mixture, Table 3A, DCM, read-out: Solubility DCM

Compound: CCN[C@H]1C[C@H](C)S(=O)(=O)c2sc(S(=O)(=O)NC(=O)[C@H](C)OC(=O)[C@H](C)OC(=O)[C@H](C)OC(=O)CCCC(=O)O[C@@H](CNC(C)(C)C)COc3nsnc3N3CCOCC3)cc21 [Compound 64-4, Timolol-O-glutarate-PLA(n=3)-Dorzolamide maleate salt]
- time in which prodrug cleaves to afford the active moieties [1]: less than 5 hours

Compound: CCCCCCCCCCCCCCCCCC(=O)O[C@@H](C)C(=O)O[C@H](COc1nsnc1N1CCOCC1)CN(C(C)=O)C(C)(C)C [Compound 65-1]
- solubility [2, 3]: > 100 mg/mL
- solubility [2, 4]: < 1 mg/mL
- degradation kinetics / hydrolysis to parent, in words [1]: resistant to hydrolysis and failed to release the parent over the course of the study; also recorded: resistant to hydrolysis

Compound: CC/C=C\C/C=C\C/C=C\C/C=C\C/C=C\C/C=C\CCC(=O)O[C@H](COc1nsnc1N1CCOCC1)CN(C(C)=O)C(C)(C)C [Compound 68-1, N-Acyl-Timolol-DHA]
- solubility [2, 3]: > 100 mg/mL
- solubility [2, 4]: < 1 mg/mL

Compound: CC(=O)N(C[C@@H](COc1nsnc1N1CCOCC1)OC(=O)[C@H](C)OC(=O)[C@H](C)O)C(C)(C)C [Compound 69-1]
- solubility [2, 3]: > 100 mg/mL
- solubility [2, 4]: < 6.3 mg/mL

Compound: CCCCC/C=C\C/C=C\CCCCCCCC(=O)O[C@@H](CNC(C)(C)C)COc1nsnc1N1CCOCC1.O=C(O)/C=C\C(=O)O [Compound 70-1, Timolol-O-linoleic acid maleate]
- solubility [2, 3]: > 50 mg/mL
- solubility [2, 4]: < 0.01 mg/mL
- degradation kinetics / hydrolysis to parent, in words [1]: degraded steadily over the 4-day period, releasing parent Timolol in a linear rate; also recorded: steady generation of the parent Timolol

Compound: CCCCC/C=C\C/C=C\CCCCCCCC(=O)O[C@@H](CNC(C)(C)C)COc1nsnc1N1CCOCC1.Cl [Compound 71-1, Timolol-O-Linoleic Acid-HCl]
- solubility [2, 3]: > 50 mg/mL
- solubility [2, 4]: > 25 mg/mL

Compound: CC(C)(C)NC[C@@H](COc1nsnc1N1CCOCC1)OC(=O)CCCCCCCCC(=O)O[C@@H](CNC(C)(C)C)COc1nsnc1N1CCOCC1.O=C(O)/C=C\C(=O)O [Compound 75-1, Timolol-Sebacic Acid-Timolol Maleate]
- solubility [2, 3]: > 100 mg/mL
- solubility [2, 4]: < 1 mg/mL

Compound: CC(C)(C)NC[C@@H](COc1nsnc1N1CCOCC1)OC(=O)CCC(=O)O[C@@H](CNC(C)(C)C)COc1nsnc1N1CCOCC1.O=C(O)/C=C\C(=O)O [Compound 76-4, Timolol-succinic acid-Timolol-maleate]
- solubility [2, 3]: > 100 mg/mL
- solubility [2, 4]: > 6.25 mg/mL

Compound: CC(C)(C)NC[C@@H](COc1nsnc1N1CCOCC1)OC(=O)CCCC(=O)O[C@@H](CNC(C)(C)C)COc1nsnc1N1CCOCC1.O=C(O)/C=C\C(=O)O [Compound 77-1, Timolol-glutaric acid-Timolol-maleate]
- solubility [2, 3]: > 100 mg/mL
- solubility [2, 4]: < 1 mg/mL

Compound: CC(C)(C)NC[C@@H](COc1nsnc1N1CCOCC1)OC(=O)/C=C/C(=O)O[C@@H](CNC(C)(C)C)COc1nsnc1N1CCOCC1.O=C(O)/C=C\C(=O)O.O=C(O)/C=C\C(=O)O [Compound 78-1, Timolol-fumurate-Timolol-maleate]
- solubility [2, 3]: > 100 mg/mL
- solubility [2, 4]: < 1 mg/mL

Compound: CC/C=C\C/C=C\C/C=C\C/C=C\C/C=C\C/C=C\CCC(=O)NS(=O)(=O)c1cc2c(s1)S(=O)(=O)[C@@H](C)C[C@@H]2NCC [Compound 80-3, (4S,6S)-4-Ethylamino-6-methyl-7,7-dioxo-4,5,6,7-tetrahydro-7lambda*6*-thieno[2,3-b]thiopyran-2-sulfonic acid ((4Z,7Z,10Z,13Z,16Z,19Z)-docosa-4,7,10,13,16,19-hexanoyl)-amide]
- solubility ([2]; organic solvent or mixture, Table 3B, DCM, read-out: Solubility DCM): > 50 mg/mL
- solubility [2, 3]: > 100 mg/mL
- solubility [2, 4]: < 1 mg/mL

Compound: COc1cccc(CN(CCOC(=O)[C@H](C)OC(=O)[C@H](C)OC(=O)[C@H](C)OC(=O)[C@H](C)OC(C)=O)C(=O)Nc2ccc(-c3cn[nH]c3)cc2)c1 [Compound 88-3, SR5834-acetyl PLA(n=4)]
- solubility [2, 3]: > 50 mg/mL

Compound: CC/C=C\C/C=C\C/C=C\C/C=C\C/C=C\C/C=C\CCC(=O)O[C@@H](C)C(=O)O[C@@H](C)C(=O)O[C@H](COc1nsnc1N1CCOCC1)CN(C(C)=O)C(C)(C)C [Compound 102-1, N-acyl-Timolol-PLA (n=2)-DHA]
- degradation kinetics / hydrolysis to parent, in words [1]: steady generation of intermediate degradants and slow hydrolysis to the parent compound; also recorded: steady generation of the intermediate N-acyl-Timolol-PLA (n=1)-DHA and slow hydrolysis to parent Timolol

Compound: CC(=O)O[C@@H](C)C(=O)O[C@@H](C)C(=O)O[C@@H](C)C(=O)O[C@@H](C)C(=O)O[C@@H](C)C(=O)O[C@@H](C)C(=O)O[C@@H](C)C(=O)O[C@@H](C)C(=O)N1CCN=C1Nc1ccc2nccnc2c1Br [Compound 109-1, Brimonidine-acetyl PLA(n=8)]
- solubility [2, 5]: > 50 mg/mL
- solubility [2, 6]: < 0.1 mg/mL

Compound: CC(=O)O[C@@H](C)C(=O)O[C@@H](C)C(=O)N1CCN(C(=O)[C@H](C)OC(=O)[C@H](C)OC(C)=O)C1=Nc1ccc2nccnc2c1Br [Compound 111-4, Brimonidine-bis-acetyl PLA(n=2)]
- solubility [2, 5]: > 50 mg/mL
- solubility [2, 6]: < 1 mg/mL

Compound: COc1cccc(CN(CCOC(=O)[C@H](C)OC(=O)[C@H](C)OC(=O)[C@H](C)OC(=O)[C@H](C)OC(C)=O)C(=O)Nc2ccc(-c3cnn(C(=O)[C@H](C)OC(=O)[C@H](C)OC(=O)[C@H](C)OC(=O)[C@H](C)OC(C)=O)c3)cc2)c1 [Compound 113-1, SR5834-bis-acetyl PLA(n=4)]
- solubility [2, 3]: 50 mg/mL (≈ 48.7 mM)
- solubility [2, 4]: < 1 mg/mL

Compound: CC(=O)O[C@@H](C)C(=O)O[C@@H](C)C(=O)N1CCN(C(C)=O)C1=Nc1ccc2nccnc2c1Br [Compound 114-4, Brimonidine-acetyl PLA(n=2)-N-Acetate]
- solubility [2, 5]: 100 mg/mL (≈ 192 mM)
- solubility [2, 6]: 1 mg/mL (≈ 1.92 mM)

Compound: CC(=O)OC(C)C(=O)OC(C)C(=O)OC(C)C(=O)OC(C)C(=O)N1CCN(C(C)=O)C1=Nc1ccc2nccnc2c1Br (centres unmarked) [Compound 115-1, Brimonidine-acetyl PLA(n=4)-N-Acetate]
- solubility [2, 5]: 100 mg/mL (≈ 150 mM)
- solubility [2, 6]: < 0.2 mg/mL

Compound: CC(=O)O[C@@H](C)C(=O)O[C@@H](C)C(=O)O[C@@H](C)C(=O)O[C@@H](C)C(=O)N1CCN(C(=O)[C@H](C)OC(=O)[C@H](C)OC(=O)[C@H](C)OC(=O)[C@H](C)OC(C)=O)C1=Nc1ccc2nccnc2c1Br [Compound 116-1, Brimonidine-bis-acetyl PLA(n=4)]
- solubility [2, 5]: 100 mg/mL (≈ 105 mM)

Compound: CC(=O)OC(C)C(=O)OC(C)C(=O)OC(C)C(=O)OC(C)C(=O)N(C[C@@H](COc1nsnc1N1CCOCC1)OC(=O)C(C)OC(=O)C(C)OC(C)=O)C(C)(C)C (some centres unmarked) [Compound 229, Timolol-bis-N-acetyl-PLA(n=4)-O-acetyl PLA(n=2)]
- solubility [2, 3]: > 50 mg/mL
- solubility [2, 4]: < 0.006 mg/mL

Compound: CC(=O)OC(C)C(=O)OC(C)C(=O)OC(C)C(=O)OC(C)C(=O)O[C@H](COc1nsnc1N1CCOCC1)CN(C(=O)C(C)OC(=O)C(C)OC(C)=O)C(C)(C)C (some centres unmarked) [Compound 230, Timolol-bis-N-acetyl-PLA(n=2)-O-acetyl PLA(n=4)]
- solubility [2, 3]: > 50 mg/mL
- solubility [2, 4]: < 0.007 mg/mL

Compound: CCN[C@H]1C[C@H](C)S(=O)(=O)c2sc(S(N)(=O)=O)cc21 [Dorzolamide, reference compound]
- Solubility DCM ([2]; Table 3B, DCM): <1.0 mg/mL
- Solubility DMSO ([2]; Table 3B, DMSO): <1.0 mg/mL
- Solubility Water [2, 7]: >50 mg/mL
- solubility [2, 8]: < 1 mg/mL
- solubility [2, 5]: < 1 mg/mL
- solubility [2, 6]: > 50 mg/mL

Compound: CCN[C@H]1C[C@H](C)S(=O)(=O)c2sc(S(=O)(=O)NC(=O)[C@H](C)O)cc21 [Dorzolamide-PLA (n = 1), dorzolamide-PLA (n=1)]
- Solubility DMSO ([2]; Table 3A, DMSO): <1.0 mg/mL
- Solubility Water ([2]; Table 3A, water, drug added to 50 mg/mL): >50 mg/mL

Compound: CC(C)OC(=O)CCC/C=C\C[C@@H]1[C@@H](CC[C@@H](O)CCc2ccccc2)[C@H](O)C[C@@H]1O [Latanoprost, reference compound]
- solubility [2, 8]: > 50 mg/mL
- solubility [2, 5]: > 50 mg/mL
- solubility [2, 6]: < 1 mg/mL

Compound: CCN(Cc1cccc(OC)c1)C(=O)Nc1ccc(-c2cn[nH]c2)cc1OCCN1CCCC1 [RKI-1y, 3-(4-(1H-pyrazol-4-yl)-2-(2-(pyrrolidin-1-yl)ethoxy)phenyl)-1-ethyl-1-(3-methoxybenzyl)urea, reference compound]
- solubility [2, 3]: > 100 mg/mL
- solubility [2, 4]: < 1 mg/mL

Compound: COc1cccc(CN(CCO)C(=O)Nc2ccc(-c3cn[nH]c3)cc2OCCN2CCCC2)c1 [RKI-H-1y, 1-(2-hydroxyethyl)-1-[(3-methoxyphenyl)methyl]-3-[4-(1H-pyrazol-4-yl)-2-[2-(pyrrolidin-1-yl)ethoxy]phenyl]urea, reference compound]
- solubility [2, 3]: > 100 mg/mL
- solubility [2, 4]: < 1 mg/mL

Compound: COc1cccc(CN(CCO)C(=O)Nc2ccc(-c3cn[nH]c3)cc2)c1 [SR5834, 1-(2-hydroxyethyl)-1-[(3-methoxyphenyl)methyl]-3-[4-(1H-pyrazol-4-yl)phenyl]urea, reference compound]
- solubility [2, 3]: > 100 mg/mL
- solubility [2, 4]: < 1 mg/mL

Compound: Brinzolamide (n = 1)
- Solubility DCM ([2]; Table 3B, DCM): >50 mg/mL
- Solubility DMSO ([2]; Table 3B, DMSO): >50 mg/mL
- Solubility Water [2, 7]: >50 mg/mL

Compound: N-acyl-Timolol-PLA (n = 2)-DHA [N-Acyl-Timolol-PLA (n = 2) DHA]
- Solubility DMSO ([2]; Table 3B, DMSO): >100 mg/mL
- Solubility Water [2, 7]: <1.0 mg/mL

Compound: Timolol-Bis-Acetyl-PLA (n = 4) [Compound 119-1]
- Solubility DMSO ([2]; Table 3B, DMSO): >50 mg/mL
- Solubility Water [2, 7]: <0.00005 mg/mL
